Consider two molecules from patent publication US11135228B2, “Cysteinyl-proresolving mediators that promote resolution of infection and organ protection” (THE BRIGHAM AND WOMEN'S HOSPITAL, priority 2014, dated 2021).

For assay [1], the system named is Human macrophages. As to the kind of experiment: Human macrophage efferocytosis of apoptotic PMN. The following applies: 10 pM-100 nM, 15 min, then apoptotic PMN 45 min; planarian isolates likewise. The assay is classed as cell-based. How it is done:
(§1) Leukocyte phagocytosis: Macrophages were prepared from peripheral blood mononuclear cells (PBMC) purchased from Children's Hospital Blood Bank, Boston, and phagocytosis was assessed as in (11). Briefly, macrophages (5×10^4 cells,/well) were incubated with SCI (10 pM-100 nM), SCII (10 pM-100 nM), MaR1 (10 pM-100 nM), or vehicle (0.1% EtOH in DPBS) for 15 min at 37° C., then fluorescent labeled apoptotic cells were added and cells incubated 45 min at 37° C. Extracellular fluorescence was quenched using Trypan blue (1:15 dilution) and phagocytosis assessed using an M3 SpectraMax plate reader. In select experiments, macrophages (5×10^4 cells/well) or neutrophils (1×10^5 cells/well) were obtained from human healthy volunteers' peripheral blood as in (11) in accordance with Partners Human Research Committee Protocol (#1999P001297), and incubated with H2DCFDA (5 μM, 30 min, 37° C.), then with SCI (10 pM-100 nM), SCI (10 pM-100 nM) or vehicle (0.1% EtOH in DPBS, 15 min, 37° C.) and E. coli (1:50 leukocytes to E. coli, 45 min, 37° C.) Intracellular reactive oxygen species were determined by measuring fluorescence using an M3 SpectraMax plate reader. To assess bacterial phagocytosis, macrophages (5×10^4 cells/well) or neutrophils (1×10^5 cells/well) were incubated with SCI (10 pM-100 nM), SCII (10 pM-100 nM) or vehicle (0.1% EtOH in DPBS, 15 min, 37° C.), then incubated with BacLight Green (Molecular Probes) labeled E. coli (1:50 leukocytes to E. coli, 45 min, 37° C.), Extracellular fluorescence was quenched using Trypan blue (1:15 dilution), and phagocytosis assessed using an M3 SpectraMax plate reader.
In determined experiments, human macrophages were incubated with SC isolates from regenerating planaria for 15 min at 37° C., then fluorescent labeled apoptotic cells were added and efferocytosis was assessed as detailed above.
Macrophage bacterial phagocytosis, efferocytosis, and phagolysosontal acidification: Human macrophages were plated in 96-well plates (5×10^4 cells per well) for 24 h, and phagocytosis or efferocytosis was assessed as in (14). In brief, apoptotic PMNs were obtained by culturing cells overnight in PBS^−/− (5×10^6 cells/ml). Apoptotic human PMNs were labeled with bisbenzimide H33342 trihydrochloride (Sigma-Aldrich). Human macrophages were incubated with 0.1-10 nM concentration of test products, and then labeled apoptotic PMNs were cocultured with macrophages for 40 min [37° C. […]]. Fluorescence was read on a SpectraMax M3 plate reader (Molecular Devices, Sunnyvale, Calif., USA), and results were analyzed using SoftMax Pro (Molecular Devices).

For assay [2], the system named is Human neutrophils. The assay is described as follows: Human neutrophil phagocytosis of fluorescently labeled E. coli. The assay is classed as cell-based. The following applies: 10 pM-100 nM, 15 min, then E. coli 45 min. The method, then:
as §1, with “To assess bacterial phagocytosis, macrophages (5×10^4 cells/well) or neutrophils (1×10^5 cells/well) were incubated with SCI (10 pM-100 nM), SCII (10 pM-100 nM) or vehicle (0.1% EtOH in DPBS, 15 min, 37° C.), then incubated with BacLight Green (Molecular Probes) labeled E. coli (1:50 leukocytes to E. coli, 45 min, 37° C.), Extracellular fluorescence was quenched using Trypan blue (1:15 dilution), and phagocytosis assessed using an M3 SpectraMax plate reader.” left out

The subject of assay [3] is Human neutrophils. The assay is described as follows: Human neutrophil intracellular reactive oxygen species (H2DCFDA). Format: cell-based. The following applies: 10 pM-100 nM, 15 min, then E. coli 45 min. The method, then: as §1, with “To assess bacterial phagocytosis, macrophages (5×10^4 cells/well) or neutrophils (1×10^5 cells/well) were incubated with SCI (10 pM-100 nM), SCII (10 pM-100 nM) or vehicle (0.1% EtOH in DPBS, 15 min, 37° C.), then incubated with BacLight Green (Molecular Probes) labeled E. coli (1:50 leukocytes to E. coli, 45 min, 37° C.), Extracellular fluorescence was quenched using Trypan blue (1:15 dilution), and phagocytosis assessed using an M3 SpectraMax plate reader.” left out

For assay [4], the system named is Human macrophages. The assay is described as follows: Human macrophage phagocytosis of fluorescently labeled E. coli. Format: cell-based. To be noted: 10 pM-100 nM, 15 min, then E. coli 45 min. The method, then:
as §1
Macrophage phagocytosis was assessed using fluorescently labeled E. coli (serotype O6:K2;H1) with BacLight Green Bacterial Stain (Life Technologies, Eugene, Oreg., USA). E. coli [2.5×10^6 colony-forming units (CFL)/well] were then added to macrophages previously plated in 96-well plates (40 min at 37° C.) and incubated with 0.1-10 nM concentration of test compounds [15 min at 37° C. (pH 7.45)]. Fluorescence was measured on a SpectraMax M3 plate reader, and results were analyzed using SoftMax Pro.

The test system of assay [5] is Mice (hind-limb ischemia/reperfusion). As to the kind of experiment: Hind-limb ischemia reperfusion, second organ reflow injury. The assay is classed as in vivo, mouse. To be noted: for protection from leukocyte-mediated tissue damage: SCI (50 ng) plus SCII (50 ng) i.v. 10 min prior to reperfusion, lung H&E; for Ki67 and RSPO3 in lung sections (immunofluorescence), tissue repair / plasma eicosanoid levels, including LTB4, LTC4 and TxB2: SCI plus SCII 50 ng each i.v. The method, then:
Ischemia Reperfusion: Mice were anesthetized by intraperitoneal (i.p.) injection of […]. To initiate hind-limb ischemia, tourniquets consisting of a rubber band were placed on each hind limb. Ten min prior to the initiation of reperfusion, Vehicle (saline containing 0.1% EtOH), SCI (50 ng) plus SCII (50 ng) or Resolvin D1 (500 ng) were administered by intravenous injection. At the end of reperfusion (3 h), mice were euthanized, blood collected via cardiac puncture and plasma isolated for lipid mediator metabololipidomics. Lungs were harvested, left lungs were frozen in liquid nitrogen and stored at −80° C. Right lungs were stored in 10% (v/v) buffered formalin and processed for histology and hematoxylin and eosin (H&E) staining by the Children's Hospital Boston Core Histology Facility, imaged using a Keyence BZ-9000 microscope and BZ II imaging software (Keyence) Expression of Ki67 and Roof plate-specific Spondin-3 (RSPO3) were assessed by immunofluorescence staining. Briefly, sections were deparafinized in xylene and rehydrated, then blocked in 10% horse serum and stained with either rat anti-mouse RSPON3 antibody (R&D Systems) for 1 h at room temperature and then with sheep anti-rat Alexa-594 conjugated antibody (BioLegend), or with rabbit anti-mouse antibody (Abeam) and then with donkey anti-rabbit Alexa-488 antibody (BioLegend). Slides were mounted in Vector Shield mounting solution with DAPI (Vector Labs) and immunofluorescence assessed using a Zeiss LSM 510 Meta confocal microscope. Images were processed using ImageJ software (National Institutes of Health) and Adobe Photoshop CS6 (Adobe Systems incorporated) software. Frozen lungs were gently dispersed, centrifuged, and tissue myeloperoxidase (MPO) levels were determined using mouse MPO ELISA (R&D Systems).

Entries after “also recorded” stand apart in the source; their conditions may differ.

Take “13-glutathionyl, 14-hydroxy-docosahexaenoic acid [SCI]”: in the assay with Human macrophages [1], the “macrophage efferocytosis of apoptotic cells” value was “dose-dependently increased; also recorded: Stimulates human”. In addition, the “neutrophil phagocytosis of E. coli” value in the assay with Human neutrophils [2] is “enhanced; also recorded: Stimulates human”. Besides, the “neutrophil intracellular reactive oxygen species” value in the assay with Human neutrophils [3] is listed as “enhanced; also recorded: Stimulates human”. The “macrophage phagocytosis of E. coli” value with Human macrophages [4] is “enhanced; also recorded: Stimulates human”. In assay [5], the “protection from leukocyte-mediated tissue damage” value is reported as “Protects from neutrophil”; the “Ki67 and RSPO3 in lung sections (immunofluorescence), tissue repair” value is given as “Promotes tissue repair”; the “plasma eicosanoid levels, including LTB4, LTC4 and TxB2” value is “Reduces systemic”.
For the molecule `CCC=CCC=CCC(O)C(C=CC=CC=CCC=CCCC(=O)O)SCC(N)C(=O)NCC(=O)O` (centres unmarked) [SCII, 13-cysteinylglycinyl, 14-hydroxy-docosahexaenoic acid], the “macrophage efferocytosis of apoptotic cells” value in the assay on Human macrophages [1] is recorded as “dose-dependently increased; also recorded: Stimulates human”. The “neutrophil phagocytosis of E. coli” value with Human neutrophils [2] is reported as “enhanced; also recorded: Stimulates human”. The “neutrophil intracellular reactive oxygen species” value with Human neutrophils [3] is on record as “enhanced”. Further, the “macrophage phagocytosis of E. coli” value in the assay with Human macrophages [4] was “enhanced; also recorded: Stimulates human”. In assay [5], the “protection from leukocyte-mediated tissue damage” value is “Protects from neutrophil”; the “Ki67 and RSPO3 in lung sections (immunofluorescence), tissue repair” value is “Promotes tissue repair”; the “plasma eicosanoid levels, including LTB4, LTC4 and TxB2” value is on record as “Reduces systemic”.
